This is an account of results in US6663846B1, “Devices and methods for monitoring drug therapy compliance” (priority 1998, dated 2003).

A short description of series [1]: Emission spectra, front-face illumination, excitation at 600 nm. The class given is physicochemical. Conditions: for emission peak: in 0.5% intralipid; for emission maximum: in water. As to the method: All fluorescence measurements were performed using front-face illumination and detection, using the sample holder shown in FIG. 18. The incident light was redirected from the usual position using two mirrors. The position of the sample could be adjusted with a movable stage. The re-emergent light passed through one or more optical filters prior to reaching the destination.
The sample consisted of either a cuvette containing the intralipid, or a quartz slide covering the chicken muscle and skin (FIG. 19). Excitation at 600 nm was provided by the fundamental output of a rhodamine 6G dye laser. This dye laser was synchronously pumped by a mode-locked argon ion laser, and cavity dumped at 1.88 MHz.
For the present studies we used two fluorophores with ns decay times, Rh800 and IcG, and a long lifetime metal ligand complex. We refer to this long lifetime reference as the Ru complex (FIG. 1). All three fluorophores can be excited at 600 nm. In water Rh800 emits maximally near 706 nm, and IcG near 805 nm. […] The emission spectra of Rh800 and IcG in 0.5% intralipid is similar to those observed in water (FIG. 2).

The conditions of series [2]: humans; cited from earlier work.
The nature of series [3]: Frequency-domain intensity decay (fluorescence lifetime) measurements. Conditions: for decay time: Rh800 in 0.5% intralipid, Ru complex in PVA film. The class given is physicochemical. Here is the method:
Frequency domain intensity decay measurements were performed as described previously. Phase angles and modulation measurements at frequencies greater than 1.88 MHz were accomplished using the harmonic content of the picosecond pulses. The excitation was polarized vertically, and the emission detected without an emission polarizer. The re-emergent light was either observed directly, or through two cut-off filters (630 and 660 nm) to remove scattered light and/or attenuate the fluorophore emission relative to that of the long lived reference.
A long lifetime reference signal was provided by [Ru(bPY)2(dppz)](PF6)^2 in a polyvinyl alcohol (PVA) film, where bpy is 2,2′-bipyridine and dppz is dipyrido[3,2-a:2′,3′-cl]phenazine. Such metal-ligand complexes are known to display lifetimes from 100 ns to 13 (s. The intensity decay time of [Ru(bpy)2(dppz)](PF6)2 in the PVA film was near 800 ns (Table 1 as shown in FIG. 20).
The intensity decay data was analyzed in terms of the multi-exponential model [formula]
In this expression αi represents the pre-exponential factors associated with each lifetime τi. The fractional contribution of each decay time component to the steady state intensity is given by [formula]
The values of Σαi and Σfi are typically normalized to unity. The mean lifetime is given by [formula]
In the frequency-domain measurements the measured quantities are the phase shift of the emission […] and its modulation (m107) at the light modulation frequency ωi in radians/sec. The values of αi and τi are determined by non-linear least squares fitting and minimization of the goodness-of-fit parameter X^2R. [formula]
In this expression the subscript c refers to calculated values of φω and mω for assumed values of αi and τi and ν is the number of degrees of freedom. δω and δm represent the uncertainties in the measured values. In some cases we performed a global analysis of data measured at more than one fluorophore concentrations. In this case the sum in equation 3 extends over these multiple concentrations (k).
We examined the frequency-domain intensity decay of Rh800 and IcG in 0.5% intralipid. As the concentration of Rh800 increased the frequency response shifted to higher frequency (FIG. 5). […] In 0.5% intralipid the intensity decay of Rh800 becomes more complex. The data could be fit to a two decay time model. The individual decay times and the mean decay times decreased with increasing Rh800 concentrations (FIG. 6). Similar results are found for IcG, with the decay times and mean decay time decreasing with increasing IcG concentration (Table III, as shown in FIG. 22).

The conditions of series [4]: cited from earlier work.

In series [1], `CC1(C)C(/C=C/C=C/C=C/C=C2\N(CCCCS(=O)(=O)O)c3ccc4ccccc4c3C2(C)C)=[N+](CCCCS(=O)(=O)[O-])c2ccc3ccccc3c21` [IcG, indocyanine green] returned an emission peak of about 820 nm and an emission maximum of about 805 nm. In addition, the clearance from circulation result in series [2] is recorded as “rapidly cleared from circulation”.

In series [1], Rhodamine 800 [Rh800] displayed an emission peak of about 710 nm and an emission maximum of about 706 nm. Further, in series [3], the decay time is 1.62 ns. The same compound displayed an intensity decay time in series [3] (in water, no intralipid, single exponential) of 0.686 ns.

Compound “Ruthenium bis-2,2′-bipyridine dipyridophenazine [Ru complex]” gave a decay time in series [3] of 834 ns. Besides, the “intensity decay time in PVA film” value in series [3] (polyvinyl alcohol film) was about 800 ns. For the same compound, the fluorescence in water entry in series [4] is “essentially non-fluorescent in water”.
